Patent publication US20250215012A1, “IKZF2 DEGRADERS AND USES THEREOF” (REGENTS OF THE UNIVERSITY OF MICHIGAN, priority 2022, published 2025)

Target: IKZF2 (Homo sapiens (Human), UniProt Q96SW2+Q9UKS7)
Test: IKZF2 HiBiT Assay (Jurkat-IKZF2-HiBiT cell line)
Assay type: cell-based
Conditions: Jurkat-IKZF2-HiBiT cells, 24 hours; for DC50: read-out: HiBit assay degradation analysis DC50; for Dmax: read-out: HiBit assay degradation analysis Dmax
Procedure, shortened: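 Jurkat cells carrying HiBiT-tagged IKZF2 were exposed to serially diluted compound for 24 h at 37 °C. Remaining IKZF2 was measured by Nano-Glo HiBiT lytic luminescence after 10-20 min at room temperature. Signal was normalized to DMSO, and IC50 came from a four-parameter variable-slope fit.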

IKZF2, sequence (Q9UKS7 whole entry): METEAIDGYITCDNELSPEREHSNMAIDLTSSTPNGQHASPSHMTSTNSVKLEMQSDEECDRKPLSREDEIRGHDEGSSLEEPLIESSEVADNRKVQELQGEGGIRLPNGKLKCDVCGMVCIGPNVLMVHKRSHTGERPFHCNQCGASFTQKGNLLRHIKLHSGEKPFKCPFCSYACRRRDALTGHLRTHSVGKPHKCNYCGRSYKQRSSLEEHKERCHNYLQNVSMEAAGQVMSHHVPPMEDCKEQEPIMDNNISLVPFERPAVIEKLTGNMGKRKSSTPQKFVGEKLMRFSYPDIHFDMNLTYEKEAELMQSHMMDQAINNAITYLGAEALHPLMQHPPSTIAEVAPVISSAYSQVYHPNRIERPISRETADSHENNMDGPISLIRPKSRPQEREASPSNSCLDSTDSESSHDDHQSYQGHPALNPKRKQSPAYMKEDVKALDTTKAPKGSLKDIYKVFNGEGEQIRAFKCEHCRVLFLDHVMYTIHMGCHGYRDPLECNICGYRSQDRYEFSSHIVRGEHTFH
IKZF2, sequence (Q96SW2 whole entry): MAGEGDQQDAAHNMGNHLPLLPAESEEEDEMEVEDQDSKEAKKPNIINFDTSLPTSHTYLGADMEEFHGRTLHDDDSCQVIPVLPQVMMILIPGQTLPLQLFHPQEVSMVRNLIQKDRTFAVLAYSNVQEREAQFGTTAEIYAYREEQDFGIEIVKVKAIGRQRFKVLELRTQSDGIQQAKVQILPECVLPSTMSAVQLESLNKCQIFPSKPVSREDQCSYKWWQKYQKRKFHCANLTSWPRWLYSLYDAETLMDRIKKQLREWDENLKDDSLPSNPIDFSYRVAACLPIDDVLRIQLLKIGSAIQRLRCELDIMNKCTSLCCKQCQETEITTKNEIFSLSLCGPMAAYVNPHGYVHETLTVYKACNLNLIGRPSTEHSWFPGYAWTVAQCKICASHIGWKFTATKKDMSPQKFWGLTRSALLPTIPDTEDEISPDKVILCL
IKZF2, sequence (Q16531 whole entry partner): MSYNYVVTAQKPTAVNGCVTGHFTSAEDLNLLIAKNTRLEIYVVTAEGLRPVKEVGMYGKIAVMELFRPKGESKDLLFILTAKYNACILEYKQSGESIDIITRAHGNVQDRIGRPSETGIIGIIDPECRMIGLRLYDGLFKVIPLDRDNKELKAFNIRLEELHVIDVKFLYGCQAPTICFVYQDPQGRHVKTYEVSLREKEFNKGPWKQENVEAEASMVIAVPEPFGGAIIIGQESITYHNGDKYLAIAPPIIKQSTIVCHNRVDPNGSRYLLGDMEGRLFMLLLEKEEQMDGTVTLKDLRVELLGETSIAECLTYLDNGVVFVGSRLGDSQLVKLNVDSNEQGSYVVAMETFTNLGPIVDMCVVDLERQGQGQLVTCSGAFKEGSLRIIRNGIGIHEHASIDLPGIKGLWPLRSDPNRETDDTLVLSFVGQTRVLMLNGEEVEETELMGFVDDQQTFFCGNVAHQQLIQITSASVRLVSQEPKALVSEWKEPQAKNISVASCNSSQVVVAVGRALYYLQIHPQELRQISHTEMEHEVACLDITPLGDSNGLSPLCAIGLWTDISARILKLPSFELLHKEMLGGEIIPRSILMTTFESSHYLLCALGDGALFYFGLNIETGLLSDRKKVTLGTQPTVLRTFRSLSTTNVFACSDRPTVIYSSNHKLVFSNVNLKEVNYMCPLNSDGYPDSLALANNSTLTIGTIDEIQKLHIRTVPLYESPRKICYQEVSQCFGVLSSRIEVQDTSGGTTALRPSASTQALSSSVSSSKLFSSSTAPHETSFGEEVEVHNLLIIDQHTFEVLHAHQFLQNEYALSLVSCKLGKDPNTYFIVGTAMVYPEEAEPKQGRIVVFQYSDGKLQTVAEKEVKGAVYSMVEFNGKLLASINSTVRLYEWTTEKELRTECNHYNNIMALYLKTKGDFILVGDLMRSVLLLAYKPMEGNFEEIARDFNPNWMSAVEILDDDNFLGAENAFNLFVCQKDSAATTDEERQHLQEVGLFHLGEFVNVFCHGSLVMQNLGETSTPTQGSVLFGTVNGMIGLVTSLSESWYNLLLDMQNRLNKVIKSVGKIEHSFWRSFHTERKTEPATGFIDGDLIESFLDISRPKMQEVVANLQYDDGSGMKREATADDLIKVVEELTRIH

| Structure (SMILES) | DC50 | Dmax |
| --- | --- | --- |
| O=C1CCC(N2Cc3c(ccc4c3OCC43CCN(Cc4cc(F)cc5cc[nH]c45)CC3)C2=O)C(=O)N1 (centres unmarked) [Compound A110, 3-(1′-((5-fluoro-1H-indol-7-yl)methyl)-6-oxo-6,8-dihydro-2H,7H-spiro[furo[2,3-e]isoindole-3,4′-piperidin]-7-yl)piperidine-2,6-dione] | < 50 nM | > 80% |
| CNC(=O)c1cccc(CN2CCC3(CC2)COc2c3ccc3c2CN(C2CCC(=O)NC2=O)C3=O)c1 (centres unmarked) [Compound A95] | > 500 nM | 40 to 60% |
| CC(C)(C)c1cccc(CN2CCC3(CC2)COc2c3ccc3c2CN(C2CCC(=O)NC2=O)C3=O)c1 (centres unmarked) [Compound A88, 3-(1′-(3-(tert-butyl)benzyl)-6-oxo-6,8-dihydro-2H,7H-spiro[furo[2,3-e]isoindole-3,4′-piperidin]-7-yl)piperidine-2,6-dione] | > 500 nM | < 40% |
| O=C1CCC(N2Cc3c(ccc4c3OCC43CCN(Cc4cncc5ccccc45)CC3)C2=O)C(=O)N1 (centres unmarked) [Compound A43, 3-(1′-(isoquinolin-4-ylmethyl)-6-oxo-6,8-dihydro-2H,7H-spiro[furo[2,3-e]isoindole-3,4′-piperidin]-7-yl)piperidine-2,6-dione] | > 500 nM | 40 to 60% |
| Cn1ccc(COc2cccc(CN3CCC4(CC3)COc3c4ccc4c3CN(C3CCC(=O)NC3=O)C4=O)c2)n1 (centres unmarked) [Compound A167, 3-(1′-(3-((1-methyl-1H-pyrazol-3-yl)methoxy)benzyl)-6-oxo-6,8-dihydro-2H,7H-spiro[furo[2,3-e]isoindole-3,4′-piperidin]-7-yl)piperidine-2,6-dione] | 50 to 200 nM | 40 to 60% |
| O=C1CCC(N2Cc3c(ccc4c3OCC43CCN(Cc4ccnc5ccccc45)CC3)C2=O)C(=O)N1 (centres unmarked) [Compound A44, 3-(6-oxo-1′-(quinolin-4-ylmethyl)-6,8-dihydro-2H,7H-spiro[furo[2,3-e]isoindole-3,4′-piperidin]-7-yl)piperidine-2,6-dione] | > 500 nM | < 40% |
| O=C1CCC(N2Cc3c(ccc4c3OCC43CCN(Cc4ccc5ccccc5c4)CC3)C2=O)C(=O)N1 (centres unmarked) [Compound A34, 3-(1′-(naphthalen-2-ylmethyl)-6-oxo-6,8-dihydro-2H,7H-spiro[furo[2,3-e]isoindole-3,4′-piperidin]-7-yl)piperidine-2,6-dione] | < 50 nM | 60 to 80% |
| Cn1ncc2cc(F)c(CN3CCC4(CC3)COc3c4ccc4c3CN(C3CCC(=O)NC3=O)C4=O)cc21 (centres unmarked) [Compound A140, 3-(1′-((5-fluoro-1-methyl-1H-indazol-6-yl)methyl)-6-oxo-6,8-dihydro-2H,7H-spiro[furo[2,3-e]isoindole-3,4′-piperidin]-7-yl)piperidine-2,6-dione] | > 500 nM | 40 to 60% |
| Cn1cc2cccc(CN3CCC4(CC3)COc3c4ccc4c3CN(C3CCC(=O)NC3=O)C4=O)c2n1 (centres unmarked) [Compound A75, 3-(1′-((2-methyl-2H-indazol-7-yl)methyl)-6-oxo-6,8-dihydro-2H,7H-spiro[furo[2,3-e]isoindole-3,4′-piperidin]-7-yl)piperidine-2,6-dione] | 50 to 200 nM | 60 to 80% |
| O=C1CCC(N2Cc3c(ccc4c3OCC43CCN(Cc4ccc5[nH]ncc5c4)CC3)C2=O)C(=O)N1 (centres unmarked) [Compound A198, 3-(1′-((1H-indazol-5-yl)methyl)-6-oxo-6,8-dihydro-2H,7H-spiro[furo[2,3-e]isoindole-3,4′-piperidin]-7-yl)piperidine-2,6-dione] | 200 to 500 nM | 60 to 80% |
| O=C1CCC(N2Cc3c(ccc4c3OCC43CCN(Cc4cnn(C5CC5)c4)CC3)C2=O)C(=O)N1 (centres unmarked) [Compound A230, 3-(1′-((1-cyclopropyl-1H-pyrazol-4-yl)methyl)-6-oxo-6,8-dihydro-2H,7H-spiro[furo[2,3-e]isoindole-3,4′-piperidin]-7-yl)piperidine-2,6-dione] | > 500 nM | 40 to 60% |
| O=C1CCC(N2Cc3c(ccc4c3OCCC43CCN(CC4CCCCC4)CC3)C2=O)C(=O)N1 (centres unmarked) [Compound A14, 3-(1-(cyclohexylmethyl)-7′-oxo-2′,3′,7′,9′-tetrahydro-8′H-spiro[piperidine-4,4′-pyrano[2,3-e]isoindol]-8′-yl)piperidine-2,6-dione] | > 500 nM | < 40% |
| O=C1CCC(N2Cc3c(ccc4c3OCC43CCN(Cc4nccc5c4CCCC5)CC3)C2=O)C(=O)N1 (centres unmarked) [Compound A324, 3-(6-oxo-1′-((5,6,7,8-tetrahydroisoquinolin-1-yl)methyl)-6,8-dihydro-2H,7H-spiro[furo [2,3-e]isoindole-3,4′-piperidin]-7-yl)piperidine-2,6-dione] | > 500 nM | 40 to 60% |
| O=C1CCC(N2Cc3c(ccc4c3OCC43CCN(CC4Cc5ccccc5C4)CC3)C2=O)C(=O)N1 (centres unmarked) [Compound A22, 3-(1′-((2,3-dihydro-1H-inden-2-yl)methyl)-6-oxo-6,8-dihydro-2H,7H-spiro[furo[2,3-e]isoindole-3,4′-piperidin]-7-yl)piperidine-2,6-dione] | > 500 nM | < 40% |
| O=C1CC[C@H](N2Cc3c(ccc4c3OCC43CCN(Cc4ccc5c(c4)C(=O)NC5)CC3)C2=O)C(=O)N1 [Compound A171, (S)-3-(6-oxo-1′-((3-oxoisoindolin-5-yl)methyl)-6,8-dihydro-2H,7H-spiro[furo[2,3-e]isoindole-3,4′-piperidin]-7-yl)piperidine-2,6-dione] | 50 to 200 nM | 60 to 80% |
| O=C1CCC(N2Cc3c(ccc4c3OCC43CCN(Cc4cnn(Cc5ccccc5Cl)c4)CC3)C2=O)C(=O)N1 (centres unmarked) [Compound A240, 3-(1′-((1-(2-chlorobenzyl)-1H-pyrazol-4-yl)methyl)-6-oxo-6,8-dihydro-2H,7H-spiro[furo[2,3-e]isoindole-3,4′-piperidin]-7-yl)piperidine-2,6-dione] | < 50 nM | 60 to 80% |
| O=C1CCC(N2Cc3c(ccc4c3OCC43CCN(Cc4cccnc4Cl)CC3)C2=O)C(=O)N1 (centres unmarked) [Compound A249, 3-(1′-((2-chloropyridin-3-yl)methyl)-6-oxo-6,8-dihydro-2H,7H-spiro[furo[2,3-e]isoindole-3,4′-piperidin]-7-yl)piperidine-2,6-dione] | > 500 nM | < 40% |
| O=C1CCC(N2Cc3c(ccc4c3OCC43CCN(Cc4ccc5occc5c4)CC3)C2=O)C(=O)N1 (centres unmarked) [Compound A120, 3-(1′-(benzofuran-5-ylmethyl)-6-oxo-6,8-dihydro-2H,7H-spiro[furo[2,3-e]isoindole-3,4′-piperidin]-7-yl)piperidine-2,6-dione] | < 50 nM | 60 to 80% |
| O=C1CCC(N2Cc3c(ccc4c3OCC43CCN(Cc4ccc5ncccc5c4)CC3)C2=O)C(=O)N1 (centres unmarked) [Compound A46, 3-(6-oxo-1′-(quinolin-6-ylmethyl)-6,8-dihydro-2H,7H-spiro[furo[2,3-e]isoindole-3,4′-piperidin]-7-yl)piperidine-2,6-dione] | 200 to 500 nM | 40 to 60% |
| O=C1CCC(N2Cc3c(ccc4c3OCC43CCN(Cc4nn(CC5COCCO5)c5ccccc45)CC3)C2=O)C(=O)N1 (centres unmarked) [Compound A328, 3-(1′-((1-((1,4-dioxan-2-yl)methyl)-1H-indazol-3-yl)methyl)-6-oxo-6,8-dihydro-2H,7H-spiro[furo[2,3-e]isoindole-3,4′-piperidin]-7-yl)piperidine-2,6-dione] | < 50 nM | 60 to 80% |
| O=C1CC[C@H](N2Cc3c(ccc4c3OCC43CCN(Cc4cnn(S(=O)(=O)c5ccc(F)c(F)c5)c4)CC3)C2=O)C(=O)N1 [Compound A353, (S)-3-(1′-((1-((3,4-difluorophenyl)sulfonyl)-1H-pyrazol-4-yl)methyl)-6-oxo-6,8-dihydro-2H,7H-spiro[furo[2,3-e]isoindole-3,4′-piperidin]-7-yl)piperidine-2,6-dione] |  | 40 to 60% |
| O=C1CCC(N2Cc3c(ccc4c3OCC43CCN(Cc4cccc(-n5cccn5)c4)CC3)C2=O)C(=O)N1 (centres unmarked) [Compound A107, 3-(1′-(3-(1H-pyrazol-1-yl)benzyl)-6-oxo-6,8-dihydro-2H,7H-spiro[furo[2,3-e]isoindole-3,4′-piperidin]-7-yl)piperidine-2,6-dione] | < 50 nM | 60 to 80% |
| O=C1CCC(N2Cc3c(ccc4c3OCC43CCN(Cc4ccccc4Oc4ccccc4)CC3)C2=O)C(=O)N1 (centres unmarked) [Compound A100, 3-(6-oxo-1′-(2-phenoxybenzyl)-6,8-dihydro-2H,7H-spiro[furo[2,3-e]isoindole-3,4′-piperidin]-7-yl)piperidine-2,6-dione] | > 500 nM | < 40% |
| Cn1cc(CN2CCC3(CC2)COc2c3ccc3c2CN(C2CCC(=O)NC2=O)C3=O)c(Cl)n1 (centres unmarked) [Compound A257, 3-(1′-((3-chloro-1-methyl-1H-pyrazol-4-yl)methyl)-6-oxo-6,8-dihydro-2H,7H-spiro[furo[2,3-e]isoindole-3,4′-piperidin]-7-yl)piperidine-2,6-dione] | > 500 nM | < 40% |
| COCn1cc(-c2cccc(CN3CCC4(CC3)COc3c4ccc4c3CN([C@H]3CCC(=O)NC3=O)C4=O)c2)cn1 [Compound A294, (S)-3-(1′-(3-(1-(methoxymethyl)-1H-pyrazol-4-yl)benzyl)-6-oxo-6,8-dihydro-2H,7H-spiro[furo[2,3-e]isoindole-3,4′-piperidin]-7-yl)piperidine-2,6-dione] | < 50 nM | 60 to 80% |
| CC(C)(O)c1ccc(CN2CCC3(CC2)COc2c3ccc3c2CN(C2CCC(=O)NC2=O)C3=O)cc1 (centres unmarked) [Compound A200, 3-(1′-(4-(2-hydroxypropan-2-yl)benzyl)-6-oxo-6,8-dihydro-2H,7H-spiro[furo[2,3-e]isoindole-3,4′-piperidin]-7-yl)piperidine-2,6-dione] | > 500 nM | < 40% |
| O=C1CCC(N2Cc3c(ccc4c3OCC43CCN(Cc4ccc(Cl)cc4F)CC3)C2=O)C(=O)N1 (centres unmarked) [Compound A4, 3-(1′-(4-chloro-2-fluorobenzyl)-6-oxo-6,8-dihydro-2H,7H-spiro[furo[2,3-e]isoindole-3,4′-piperidin]-7-yl)piperidine-2,6-dione] | > 500 nM | 40 to 60% |
